Assay [1] deals with T1, Chromobox protein homolog 7 (Homo sapiens, UniProt O95931).
T1 sequence (O95931 whole entry): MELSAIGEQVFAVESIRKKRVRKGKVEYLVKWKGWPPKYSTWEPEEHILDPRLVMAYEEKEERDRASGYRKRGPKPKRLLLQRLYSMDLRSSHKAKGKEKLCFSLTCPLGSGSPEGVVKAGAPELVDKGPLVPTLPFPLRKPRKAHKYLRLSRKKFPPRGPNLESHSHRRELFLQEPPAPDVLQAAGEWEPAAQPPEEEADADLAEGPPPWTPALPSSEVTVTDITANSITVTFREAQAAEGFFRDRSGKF
In words: Antagonist activity at Flag-tagged CBX7 (unknown origin) assessed as inhibition of CBX7/biotinylated H3K9Me3 peptide interaction after 30 mins by AlphaScreen assay. On the technique in general: Alpha assays give light when donor and acceptor beads are brought close together.

For assay [2], the target named is T2, Lethal(3)malignant brain tumor-like protein 3 (Homo sapiens, UniProt Q96JM7).
T2 sequence (Q96JM7 whole entry): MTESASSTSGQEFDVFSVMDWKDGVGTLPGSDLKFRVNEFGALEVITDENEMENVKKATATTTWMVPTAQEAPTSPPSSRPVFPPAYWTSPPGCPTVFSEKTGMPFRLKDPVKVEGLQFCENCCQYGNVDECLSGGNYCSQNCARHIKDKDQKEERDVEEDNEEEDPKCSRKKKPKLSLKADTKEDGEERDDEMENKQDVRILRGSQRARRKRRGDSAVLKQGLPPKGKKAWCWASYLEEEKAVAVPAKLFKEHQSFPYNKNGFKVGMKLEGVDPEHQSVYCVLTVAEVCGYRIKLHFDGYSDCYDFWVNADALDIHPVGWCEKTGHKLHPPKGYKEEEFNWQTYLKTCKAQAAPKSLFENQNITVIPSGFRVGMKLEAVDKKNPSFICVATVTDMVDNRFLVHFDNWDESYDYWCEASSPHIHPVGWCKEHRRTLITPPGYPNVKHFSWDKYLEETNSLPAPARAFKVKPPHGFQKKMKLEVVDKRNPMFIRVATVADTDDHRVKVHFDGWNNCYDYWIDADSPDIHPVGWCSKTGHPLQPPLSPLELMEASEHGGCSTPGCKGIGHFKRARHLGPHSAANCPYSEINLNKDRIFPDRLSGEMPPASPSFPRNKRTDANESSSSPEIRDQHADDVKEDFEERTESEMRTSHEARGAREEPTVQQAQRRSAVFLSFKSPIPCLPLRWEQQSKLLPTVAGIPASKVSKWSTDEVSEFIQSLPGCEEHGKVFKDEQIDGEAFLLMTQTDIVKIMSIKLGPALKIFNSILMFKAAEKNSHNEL
As to the kind of experiment: Antagonist activity at His-tagged L3MBTL3 (unknown origin) assessed as inhibition of L3MBTL3/biotinylated H4K20Me2 peptide interaction after 30 mins by AlphaScreen assay.

Assay [3] addresses T3, Scm-like with four MBT domains protein 1 (Homo sapiens, UniProt Q9UHJ3).
T3 sequence (Q9UHJ3 whole entry): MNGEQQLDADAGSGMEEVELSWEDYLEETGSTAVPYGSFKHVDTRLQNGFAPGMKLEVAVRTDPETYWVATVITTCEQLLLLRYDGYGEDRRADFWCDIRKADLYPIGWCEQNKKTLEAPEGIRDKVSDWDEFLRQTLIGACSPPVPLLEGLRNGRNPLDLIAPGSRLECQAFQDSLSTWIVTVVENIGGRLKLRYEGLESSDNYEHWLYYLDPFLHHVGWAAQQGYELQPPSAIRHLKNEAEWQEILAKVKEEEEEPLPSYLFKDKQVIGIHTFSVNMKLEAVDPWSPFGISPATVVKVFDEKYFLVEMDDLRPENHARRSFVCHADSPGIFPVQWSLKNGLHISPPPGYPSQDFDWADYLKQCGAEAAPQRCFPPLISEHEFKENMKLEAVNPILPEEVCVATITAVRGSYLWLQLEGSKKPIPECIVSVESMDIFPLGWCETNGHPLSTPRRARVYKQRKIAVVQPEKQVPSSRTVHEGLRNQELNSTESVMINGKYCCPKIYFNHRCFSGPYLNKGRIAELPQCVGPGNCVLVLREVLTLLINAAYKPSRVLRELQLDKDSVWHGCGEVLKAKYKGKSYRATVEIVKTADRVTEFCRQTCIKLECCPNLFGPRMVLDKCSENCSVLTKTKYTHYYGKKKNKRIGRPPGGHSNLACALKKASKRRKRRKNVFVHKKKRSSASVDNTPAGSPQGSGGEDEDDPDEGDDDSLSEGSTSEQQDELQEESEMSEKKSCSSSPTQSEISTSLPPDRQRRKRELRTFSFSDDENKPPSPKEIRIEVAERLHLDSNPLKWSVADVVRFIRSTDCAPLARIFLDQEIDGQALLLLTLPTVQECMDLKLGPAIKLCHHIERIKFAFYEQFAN
As to the kind of experiment: Antagonist activity at SFMBT1 (unknown origin) assessed as inhibition of SFMBT1/biotinylated H3K9Me1 peptide interaction after 30 mins by AlphaScreen assay.

Assay [4] concerns the target T4, Lethal(3)malignant brain tumor-like protein 4 (Homo sapiens) (UniProt Q8NA19).
T4 sequence (whole entry): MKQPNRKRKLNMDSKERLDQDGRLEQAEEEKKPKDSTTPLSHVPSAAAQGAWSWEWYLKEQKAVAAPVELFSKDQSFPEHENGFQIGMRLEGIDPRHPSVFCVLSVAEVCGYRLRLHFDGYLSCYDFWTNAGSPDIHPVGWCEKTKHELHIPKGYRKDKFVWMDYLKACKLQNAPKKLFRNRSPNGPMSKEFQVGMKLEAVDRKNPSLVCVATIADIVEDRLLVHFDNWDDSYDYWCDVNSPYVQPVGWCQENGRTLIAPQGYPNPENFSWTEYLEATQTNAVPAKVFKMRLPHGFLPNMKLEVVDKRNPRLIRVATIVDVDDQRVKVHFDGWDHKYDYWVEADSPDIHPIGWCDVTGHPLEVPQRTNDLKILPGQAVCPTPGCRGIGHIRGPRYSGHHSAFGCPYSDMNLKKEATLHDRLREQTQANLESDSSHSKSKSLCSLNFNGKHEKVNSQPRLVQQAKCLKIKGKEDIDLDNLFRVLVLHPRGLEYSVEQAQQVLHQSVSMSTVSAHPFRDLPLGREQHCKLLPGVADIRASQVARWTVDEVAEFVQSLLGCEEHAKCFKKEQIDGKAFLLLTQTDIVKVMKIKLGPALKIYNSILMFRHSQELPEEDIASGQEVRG
As to the kind of experiment: Antagonist activity at L3MBTL4 (unknown origin) assessed as inhibition of L3MBTL4/biotinylated H2AK36Me1 peptide interaction at 30 uM after 30 mins by AlphaScreen assay.

In assay [5] the target is T5, Lethal(3)malignant brain tumor-like protein 4 (Homo sapiens, UniProt Q8NA19).
T5 sequence (Q8NA19 whole entry): T4 sequence (whole entry)
As to the kind of experiment: Antagonist activity at L3MBTL4 (unknown origin) assessed as inhibition of L3MBTL4/biotinylated H2AK36Me1 peptide interaction after 30 mins by AlphaScreen assay.

For assay [6], the target named is T6, MBT domain-containing protein 1 (Homo sapiens, UniProt Q05BQ5). As to the kind of experiment: Antagonist activity at MBTD1 (unknown origin) assessed as inhibition of MBTD1/biotinylated H4K20Me1 peptide interaction at 30 uM after 30 mins by AlphaScreen assay.
T6 sequence (Q05BQ5 whole entry, the tested form may be a part): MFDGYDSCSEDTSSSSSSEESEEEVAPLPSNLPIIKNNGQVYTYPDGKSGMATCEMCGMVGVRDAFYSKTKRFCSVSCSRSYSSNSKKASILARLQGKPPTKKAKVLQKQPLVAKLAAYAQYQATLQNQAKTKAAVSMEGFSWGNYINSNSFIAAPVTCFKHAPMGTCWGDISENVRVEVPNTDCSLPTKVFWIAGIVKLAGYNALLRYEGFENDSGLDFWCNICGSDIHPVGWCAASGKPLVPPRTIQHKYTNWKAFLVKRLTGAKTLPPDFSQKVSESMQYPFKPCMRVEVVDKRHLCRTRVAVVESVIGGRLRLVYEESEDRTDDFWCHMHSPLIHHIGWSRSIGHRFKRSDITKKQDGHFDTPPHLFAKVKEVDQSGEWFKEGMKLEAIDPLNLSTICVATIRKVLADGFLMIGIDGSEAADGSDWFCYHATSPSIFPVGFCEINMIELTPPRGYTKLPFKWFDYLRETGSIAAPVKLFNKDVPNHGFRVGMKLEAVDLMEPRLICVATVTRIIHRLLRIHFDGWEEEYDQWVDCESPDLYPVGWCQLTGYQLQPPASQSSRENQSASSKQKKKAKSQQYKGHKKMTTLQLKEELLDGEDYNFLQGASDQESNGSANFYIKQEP
Assay [7] has as its target T7, Chromobox protein homolog 7 (Homo sapiens) (UniProt O95931).
T7 sequence (whole entry): T1 sequence (O95931 whole entry)
In words: Antagonist activity at Flag-tagged CBX7 (unknown origin) assessed as inhibition of CBX7/biotinylated H3K9Me3 peptide interaction at 30 uM after 30 mins by AlphaScreen assay.

Assay [8] deals with T8, Scm-like with four MBT domains protein 1 (Homo sapiens) (UniProt Q9UHJ3).
T8 sequence (whole entry): T3 sequence (Q9UHJ3 whole entry)
As to the kind of experiment: Antagonist activity at SFMBT1 (unknown origin) assessed as inhibition of SFMBT1/biotinylated H3K9Me1 peptide interaction at 30 uM after 30 mins by AlphaScreen assay.

In assay [9] the target is T6, MBT domain-containing protein 1. In words: Antagonist activity at MBTD1 (unknown origin) assessed as inhibition of MBTD1/biotinylated H4K20Me1 peptide interaction after 30 mins by AlphaScreen assay.

SMILES strings stand for the structures. Activity calls are given as the source filed them. No cut-off for these calls is given here.

Turning to `O=C(c1cncc(Br)c1)N1CCC(N2CCCC2)CC1`, the IC50 in assay [1] was more than 30 µM; in assay [2], 4.8 µM; in assay [3] it was more than 30 µM; in [5], more than 30 µM; in [9], more than 30 µM. For the same compound, the inhibition in [4] amounted to 41%; in assay [6], 23%; in assay [7] it was 9%. For the same compound, in [8], the inhibition entry is “inactive”.

For `O=C(c1cccc(Br)c1)N1CC2CCC(C1)C2N1CCCC1` (stereo not given), the IC50 was more than 30 µM in [1]; 3.6 µM in [2]; more than 30 µM in assay [3]; more than 30 µM in [5]; more than 30 µM in [9]. Further, the inhibition in assay [4] worked out at 16%; in assay [6] it was 31%. Also, the inhibition result in assay [7] and in assay [8] was “inactive” throughout.

Take `c1ccc(C(c2ccccc2)N2CCC(N3CCCC3)CC2)cc1`: the IC50 was more than 30 µM in assay [1]; 2.4 µM in assay [2]; more than 30 µM in assay [3]; more than 30 µM in assay [5]; more than 30 µM in assay [9]. For the same compound, the results for the inhibition in assay [4] and in [6] were 17% and 36%, respectively. Moreover, the inhibition entry in assay [7] and in assay [8] was “inactive” in each case.

On to `O=C(c1cccc(Br)c1)N1CCCC(N2CCCC2)CC1` (stereo not given), for which the IC50 in assay [1] is more than 30 µM; in assay [2] it was 6.7 µM; in assay [3] it was more than 30 µM; in [5] it was more than 30 µM; in [9] it was 15.2 µM. For the same compound, the inhibition was 28% in [4] and 13% in assay [7]. Further, the inhibition entry in assay [8] is “inactive”.

Regarding `CNC(=O)c1cccc(C(=O)N2CCC(N3CCCC3)CC2)c1`, the IC50 in [1] was more than 30 µM; in [2] it was 6.4 µM; in [3], more than 30 µM; in assay [5] it was more than 30 µM; in assay [9], more than 30 µM. Further, the inhibition in [4] is 32%; in [6] it was 21%. Besides, the inhibition entry in assay [7] and in assay [8] was “inactive” throughout.

Consider `O=C(c1ccc(Br)cc1)N1CCC(N2CCCC2)CC1`, for which the IC50 in assay [1] is more than 30 µM; in [2] it was 4.1 µM; in [3], more than 30 µM; in assay [5], more than 30 µM; in assay [9], more than 30 µM. Besides, the inhibition in [4] stood at 30%; in [6] it was 24%. Besides, the inhibition entry in [7] and in assay [8] was “inactive” in each case.

Take `O=C(c1cccc(Br)c1)N1CCC(N2CC=CC2)CC1`: the IC50 is more than 30 µM in assay [1]; 8.7 µM in assay [2]; more than 30 µM in [3]; more than 30 µM in [5]; more than 30 µM in [9]. Besides, the inhibition in assay [4] is 28%; in assay [6] it was 24%; in assay [7] it was 18%. Also, the inhibition result in assay [8] was “inactive”.

On to `O=C(c1ccccc1Br)N1CCC(N2CCCC2)CC1`, for which the IC50 in assay [1] was more than 30 µM; in assay [2] it was 6.8 µM; in assay [3], more than 30 µM; in assay [5], more than 30 µM; in assay [9], more than 30 µM. Moreover, the inhibition worked out at 29% in assay [4], 31% in assay [6] and 17% in assay [7]. Further, the inhibition entry in assay [8] was “inactive”.

Turning to `O=C(c1ccccc1)N1CCC(N2CCCC2)CC1`, the IC50 in assay [1] is more than 30 µM; in assay [2] it was 6.2 µM; in [3], more than 30 µM; in assay [5], more than 30 µM; in assay [9], more than 30 µM. The inhibition came to 40% in [4] and 22% in [6]. The inhibition entry in assay [7] and in assay [8] was “inactive” each time.

The IC50 is the point on the concentration scale where inhibition reaches its midpoint. What is called inhibition is the change of the read-out against control, counted positive when it falls.

The record behind these values is ChEMBL document CHEMBL3217594, “Structureactivity relationships of methyl-lysine reader antagonists” (Medchemcomm, 2012).
